Results reported in PubChem BioAssay AID624167 (Sanford-Burnham Center for Chemical Genomics, 2012).
pIC50: −log10 of the molar value. Active and inactive are the calls of the source.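 The calls were made as follows: active = mean IC50 for reducing PEG3 promoter reporter signal at or below a set limit, with IC50 above the limit in both counter screens; inactive = the rest, including counter screen hits.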

How the values were obtained:
[1] = biological target: PEG-3 (UniProt Q6IN02); assay: Peg3 promoter luciferase inhibitors, potency, dose response, cell-based, HeLa, CREF/GAPDH counter-screen panel (AID 624167); settings: HeLa PEG-Prom luciferase reporter, overnight, CREF/GAPDH counter-screens, mean of runs
Chain of PEG-3 (UniProt Q6IN02) (Q6IN02 whole entry, looked up): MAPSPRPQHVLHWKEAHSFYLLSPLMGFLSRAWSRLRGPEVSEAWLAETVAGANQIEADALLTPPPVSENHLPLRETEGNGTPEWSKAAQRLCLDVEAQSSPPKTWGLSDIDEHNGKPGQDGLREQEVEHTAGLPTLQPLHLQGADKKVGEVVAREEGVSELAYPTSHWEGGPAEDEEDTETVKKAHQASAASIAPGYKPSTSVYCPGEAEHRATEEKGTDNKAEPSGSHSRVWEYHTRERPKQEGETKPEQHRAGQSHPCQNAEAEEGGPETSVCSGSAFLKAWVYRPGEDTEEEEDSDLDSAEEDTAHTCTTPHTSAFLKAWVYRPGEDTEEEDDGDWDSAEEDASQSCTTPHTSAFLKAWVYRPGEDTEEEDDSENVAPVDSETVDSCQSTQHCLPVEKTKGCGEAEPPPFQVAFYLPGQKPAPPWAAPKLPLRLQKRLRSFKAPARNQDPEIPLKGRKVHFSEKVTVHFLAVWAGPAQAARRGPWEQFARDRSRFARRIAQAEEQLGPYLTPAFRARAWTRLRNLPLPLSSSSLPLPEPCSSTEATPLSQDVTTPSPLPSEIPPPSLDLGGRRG

[2] = system: PEG-3; assay: as above; settings: HeLa PEG-Prom luciferase reporter, overnight, CREF/GAPDH counter-screens
[3] = run 1, dose range 1, individual replicate IC50 per panel
[4] = run 2, dose range 1, individual replicate IC50 per panel

| pIC50 [1] | IC50 [1] | Structure (SMILES) | pIC50 [2, 3] | pIC50 [2, 4] |
| --- | --- | --- | --- | --- |
| 4.76 | – | C=CCN=C1NN=C(c2cc(C)n(CC=C)c2C)CS1 | 4.94 | 4.63 |
| – | inactive | O=C(Nc1cccc(S(=O)(=O)N2CCOCC2)c1)c1ccc2c(=O)n3c(nc2c1)CCCCC3 | 4.60 | 4.37 |
| – | inactive | NC1=NC[C@H](Cc2ccccc2)N1CCc1cc(C(F)(F)F)cc(C(F)(F)F)c1 | 4.33 | 4.77 |
| – | inactive | CCN(CCN(C)C)C(=O)C1CCN(S(=O)(=O)c2c(C)noc2/C=C/c2ccccc2F)CC1 | 4.55 | 4.67 |
| – | inactive | Cc1ccc2[nH]c(=O)c(C3C(C#N)=C(N)Oc4c3ccc3cccnc43)cc2c1 (configuration not stated) | 4.55 | 4.66 |
| 4.82 | – | CC(C)c1ccc(/C=N/Nc2ccc(C(=O)O)cc2)cc1 | 4.96 | 4.71 |
| 6.58 | – | Cc1cc2sc3ccc(C#CC4(O)CCCCC4)cc3c(=O)c2cc1C | 6.58 | > 6.70 |
| – | > 100 µM (inactive) | COc1ccc2c(c1)[nH]c1c(=O)n(/N=C/C3C(C)C=C(C)CC3C)c(=O)[nH]c12 (configuration not stated) | < 4.00 | < 4.00 |
| – | inactive | COc1ccc(CCn2c(=N)c(C(=O)NC3CCCC3)cc3c(=O)n4cccc(C)c4nc32)cc1 | 4.80 | 4.37 |
| 4.95 | – | O=C1c2ccccc2S(=O)(=O)N1Cc1nc2ccccc2s1 | 5.08 | 4.84 |
| 4.80 | – | COc1ccc(CC(N)c2csc(Nc3cccc(OC)n3)n2)cc1 (configuration not stated) | 4.76 | 4.85 |
| 4.93 | – | Cc1cc(C(=O)COC(=O)C2=COCCO2)c(C)n1-c1ccccc1 | 4.95 | 4.90 |
| 4.86 | – | CCC1(c2ccccc2)NC(=O)N(CC(=O)Nc2cc(S(=O)(=O)N3CCCCCC3)ccc2OC)C1=O (configuration not stated) | 4.86 | 4.87 |
| 4.93 | – | COc1cc(-c2cc(C(=O)Nc3cc(S(=O)(=O)N4CCOCC4)ccc3C)c3ccccc3n2)cc(OC)c1OC | 4.95 | 4.90 |
| 4.82 | – | Cc1cc(Sc2ncnc(N)c2[N+](=O)[O-])ncn1 | 4.73 | 4.93 |
| – | inactive | Cc1cc(C=C2C(=O)c3ccccc3C2=O)c(C)n1-c1ccccc1 | 4.40 | < 4.00 |
| 4.89 | – | NCCc1c(-c2ccccc2)n(-c2ccccc2)c2ccccc12 | 4.76 | 5.08 |

| pIC50 [1] | IC50 [1] | Structure (SMILES) | pIC50 [2, 3] | pIC50 [2, 4] |
| --- | --- | --- | --- | --- |
| – | inactive | CCN(CC)CCSc1nnc2c3cc(C)ccc3n(Cc3ccccc3)c2n1 | 4.51 | 4.03 |
| – | inactive | O=C(C[C@H]1C[C@H](C(=O)N2CCCCC2)[C@@]2(CCc3ccccc3)c3[nH]c4ccc(Cl)cc4c3CCN2C1=O)NCCc1ccccn1 | 4.75 | 4.59 |
| – | inactive | Cc1ccc(C2(CCNCc3ccc(N(C)C)cc3)CCOC(C(C)C)C2)cc1 (configuration not stated) | 4.59 | 4.67 |
| – | inactive | Oc1ccc(C[C@H]2CNCCN2CCc2cc(C(F)(F)F)cc(C(F)(F)F)c2)cc1 | 4.57 | 4.70 |
| – | inactive | COc1ccc(/C=C/C(=O)c2ccc3c4c(cccc24)CC3)cc1OC | 4.50 | 4.38 |
| – | inactive | COc1ccccc1N(C(=O)CCl)c1cn(C(C)=O)c2ccccc12 | 4.62 | 4.58 |
| 4.73 | – | COc1cccc(-c2cnc3c(NC=O)cc(-c4cccc(C(=O)N(C)C)c4)cn23)c1 | 4.70 | 4.75 |
| – | inactive | COc1ccc(Nc2nc(-c3ccccc3)nc3ccccc23)cc1S(=O)(=O)N1CCOCC1 | 5.04 | 4.47 |
| 4.78 | – | O=C(C=Cc1ccccn1)c1ccccc1 | 4.68 | 4.90 |
| 4.91 | – | CCCOC(=O)c1cccc(Nc2nc(-c3cccnc3)nc3ccccc23)c1 | 4.90 | 4.92 |
| 4.75 | – | COc1cccc(-c2nnc3n2N=C(C(C)(C)C)CS3)c1 | 4.85 | 4.67 |
| 4.76 | – | Cc1ccc2sc(N(CCCN(C)C)C(=O)c3ccc(S(=O)(=O)N(C)C4CCCCC4)cc3)nc2c1C | 4.68 | 4.86 |
| – | inactive | CCN(CC)CCNC(=O)c1ccc(NC(=O)c2cccc(S(=O)(=O)N(C)C3CCCCC3)c2)cc1 | 4.54 | 4.59 |
| 4.87 | – | O=C(CCCN1C(=O)/C(=C/c2cccc(Br)c2)SC1=S)Nc1cccnc1 | 4.82 | 4.92 |
| 4.77 | – | CN(C)CCNc1ccc(CO)c2oc3ccc(O)cc3c(=O)c12 | 4.69 | 4.87 |
| 4.80 | – | CN(C)C(=O)c1cccc(-c2cnc3c(NC=O)cc(-c4cccc(C(F)(F)F)c4)cn23)c1 | 4.94 | 4.69 |
| – | inactive | O/N=C(\c1ccc(Cl)cc1Cl)c1ncc(C(F)(F)F)cc1Cl | 4.49 | 4.52 |
